This note sets out measurements from ChEMBL document CHEMBL1136152, “Synthesis and antioxidant efficiency of a new amphiphilic spin-trap derived from PBN and lipoic acid” (Bioorg Med Chem Lett, 2003).

What all share (assay type): functional
The nature of test [1]: In vitro half-hemolysis time at the concentration of 200 uM with LAMPBN to LGT molar ratio = 0.67/1.33.
Test [2] is described as follows: In vitro half-hemolysis time at the concentration of 500 uM with LAMPBN to LGT molar ratio = 1/1.
Test [3] can be described thus: In vitro half-hemolysis time at the concentration of 50 uM with LAMPBN to LGT molar ratio = 1.33/0.67.
Test [4] can be described thus: In vitro half-hemolysis time at the concentration of 50 uM with LAMPBN to LGT molar ratio = 1/1.
The nature of test [5]: In vitro half-hemolysis time at the concentration of 100 uM with LAMPBN to LGT molar ratio = 1.33/0.67.
Test [6] is described as follows: In vitro half-hemolysis time at the concentration of 50 uM with LAMPBN to LGT molar ratio = 0.67/1.33.
Test [7] in a line: In vitro half-hemolysis time at the concentration of 100 uM with LAMPBN to LGT molar ratio = 0.67/1.33.
The nature of test [8]: In vitro half-hemolysis time at the concentration of 100 uM with LAMPBN to LGT molar ratio = 1/1.
Test [9] can be described thus: In vitro half-hemolysis time at the concentration of 200 uM with LAMPBN to LGT molar ratio = 1.33/0.67.
Test [10] in a line: In vitro half-hemolysis time at the concentration of 200 uM with LAMPBN to LGT molar ratio = 1/1.
A short description of test [11]: In vitro half-hemolysis time at the concentration of 500 uM with LAMPBN to LGT molar ratio = 0.67/1.33.
Test [12] can be described thus: In vitro half-hemolysis time at the concentration of 500 uM with LAMPBN to LGT molar ratio = 1.33/0.67.
A short description of test [13]: In vitro half-hemolysis time at the concentration of 200 uM.
Test [14] in a line: In vitro half-hemolysis time at the concentration of 100 uM.
The nature of test [15]: In vitro half-hemolysis time at the concentration of 500 uM.
The nature of test [16]: In vitro half-hemolysis time at the concentration of 50 uM.

On to `CC(C)(C)/[N+]([O-])=C/c1ccc(CNC(=O)[C@H](O)[C@@H](O)C(O[C@@H]2O[C@@H](CO)[C@H](O)[C@H](O)[C@@H]2O)[C@H](O)CO)cc1.O=C(CCCCC1CCSS1)NCC(=O)NC(CO)(CO)CO` (stereo partly specified), for which the HT50 in test [1] came out at 62%; in test [2], 86.5%; in [3] it was 41.5%; in test [4], 44.6%; in [5] it was 47.4%; in [6], 56.6%. Besides, the HT50 in test [7] was 60.8%; in test [8], 51.6%; in test [9], 49.8%; in test [10] it was 53.7%; in test [11] it was 88.6%; in [12], 86.3%.
For the compound `CC(C)(COC(=O)NCCCNC(=O)CCCCC1CCSS1)/[N+]([O-])=C/c1ccc(CNC(=O)[C@H](O)[C@@H](O)[C@H](O[C@@H]2O[C@@H](CO)[C@H](O)[C@H](O)[C@@H]2O)[C@H](O)CO)cc1` (stereo partly specified), the HT50 stood at 135% in test [13], 82.9% in test [14], 167% in [15] and 49% in test [16].
